Data reported in patent publication US8785499B2 (priority 2009, dated 2014).

target: ecNadD (Escherichia coli (strain K12), UniProt P0A752); test: biochemical; type: biochemical; details: not given

Row | Structure (SMILES) | […]. coli
1 | S=C(N/N=C/c1ccccc1Cl)Nc1cc(Cl)ccc1Cl [compound 002] | 76%
2 | O=C(O)c1cc([N+](=O)[O-])ccc1Sc1cccs1 [compound 005] | 71%
3 | Brc1cnc2nc(/C=C/c3ccccc3)[nH]c2c1 [compound 006] | 62%
4 | O=C1NC(=O)/C(=C\c2ccc(C(=O)O)cc2)N1 [compound 007] | 54%
5 | CC(=O)Nc1ccc(S(=O)(=O)Nc2ccc(Cl)cc2Cl)cc1 [compound 008] | 47%
6 | COC(=O)c1sc(NC(=O)/C=C/C(=O)O)nc1C [compound 009] | 45%
7 | NS(=O)(=O)c1ccc(Nc2nc(-c3ccc(O)c(O)c3)cs2)cc1 [compound 010] | 32%
8 | O=C(Nc1ncccn1)c1sc2ccccc2c1Cl [compound 011] | 31%
9 | COc1cc(/C=N/c2ccc3[nH]c(=O)[nH]c3c2)ccc1OC(C)=O [compound 012] | 30%
10 | N=C(N)NNC(=S)Nc1ccc(Cl)cc1 [compound 013] | 30%
11 | Cc1cc(Nc2cccc(C(=O)O)c2)n2ncnc2n1 [compound 014] | 30%
12 | O=C(O)c1ccc([N+](=O)[O-])cc1C(=O)Nc1ccc(Cl)cc1 [compound 016] | 29%
13 | O=C(O)CCC(=O)NNC(=O)c1cccc(O)c1 [compound 017] | 27%
14 | Nc1nnc(CCSc2cc(Cl)ccc2Cl)s1 [compound 018] | 27%
15 | N#CC1=C(N)OC(c2cccs2)=C(C#N)C1c1cccs1 (stereo not drawn) [compound 019] | 26%
16 | O=C(Nc1ccc(NC(=O)c2cccs2)cc1)c1ccccc1 [compound 020] | 26%
17 | NS(=O)(=O)c1ccc(N/C=C/C(=O)c2ccc(Cl)s2)cc1 [compound 021] | 24%
18 | Nc1nc(-c2ccc(NC(=O)c3ccc(Cl)cc3)cc2)cs1 [compound 022] | 24%

Row | Structure (SMILES) | […]. coli
19 | Cc1c(NC(=O)CSS(=O)(=O)O)c(=O)n(-c2ccccc2)n1C [compound 023] | 24%
20 | O=C(O)CCCCCN1C(=O)c2ccc(F)cc2C1=O [compound 024] | 23%
21 | Cc1ccc(F)cc1NC(=O)CSCC(=O)O [compound 025] | 23%
22 | O=c1[nH]c(SCc2nc3ccccc3[nH]2)nc2ccccc12 [compound 026] | 23%
23 | O=C(O)c1cccc(NCN2C(=O)c3ccccc3C2=O)c1 [compound 027] | 23%
24 | O=C(NNC(=O)c1ccco1)c1cccc(I)c1 [compound 028] | 23%
25 | O=C(O)CCC(C(=O)O)N1C(=O)c2cc(Cl)c(Cl)cc2C1=O (stereo not drawn) [compound 029] | 22%
26 | O=C(O)c1ccc(Nc2nc(-c3ccc(Cl)cc3)cs2)cc1 [compound 030] | 22%
27 | O=C(O)c1nccnc1C(=O)Nc1ccc(Br)cc1 [compound 031] | 21%
28 | COc1c(C)cc(Br)cc1C(=O)Nc1ccc(S(N)(=O)=O)cc1 [compound 032] | 21%
29 | Nc1cc(NCCCCCC(=O)O)ccc1[N+](=O)[O-] [compound 034] | 21%
30 | CC(=O)Nc1ccc(NS(=O)(=O)c2ccc(O)c(C(=O)O)c2)cc1 [compound 035] | 20%
31 | O=C(Nc1ccccc1C(=O)O)c1ccc(Br)o1 [compound 036] | 20%
32 | COc1cc(Br)cc(/C=C2/SC(=S)NC2=O)c1O [compound 037] | 20%
33 | Oc1c(Cl)cc(Cl)cc1/C=N/c1nc[nH]n1 [compound 038] | 20%
34 | Nc1nonc1C(=O)N/N=C/c1cc(Br)cc(Br)c1O [compound 040] | 19%
35 | O=C(O)[C@@H]1CSC(c2ccc(Cl)cc2Cl)N1 (stereo partly drawn) [compound 041] | 19%

same assay, conditions: IC50 ecNadD

Row | Structure (SMILES) | IC50
36 | Cc1cccc(N/C=C2\C(=O)Nc3ccccc32)c1 [15_28] | > 200 µM
37 | Cc1ccccc1N/C=C1\C(=O)Nc2ccccc21 [15_31] | 118 µM
38 | O=C(CCC(=O)Nc1ccc(I)cc1)N/N=C/c1c2ccccc2cc2ccccc12 [compound 001] | 15 µM
39 | O=C1Nc2ccccc2/C1=C/Nc1ccc(Br)cc1F [compound 015] | 30 µM

same assay, conditions: read-out: INHIBITION (%) E. coli

Row | Structure (SMILES) | inhibition at 100 µM
40 | Cc1cccc(N/C=C2\C(=O)Nc3ccccc32)c1 [15_28] | 8%
41 | Cc1ccc(N/C=C2\C(=O)Nc3ccccc32)cc1 [15_29] | 7%
42 | CC(C)c1ccc(N/C=C2\C(=O)Nc3ccccc32)cc1 [15_30] | 7%
43 | Cc1ccccc1N/C=C1\C(=O)Nc2ccccc21 [15_31] | 7%
44 | O=C1Nc2ccccc2/C1=C/NCCc1ccccc1 [15_32] | 7%
45 | O=C1Nc2ccccc2/C1=C/NC1CCCCC1 [15_33] | 6%
46 | CC(C)N/C=C1\C(=O)Nc2ccccc21 [15_34] | 4%
47 | CC(=O)c1cccc(N/C=C2\C(=O)Nc3ccccc32)c1 [15_35] | 4%
48 | Cc1cccc(C)c1N/C=C1\C(=O)Nc2ccccc21 [15_36] | 4%
49 | COc1cccc(N/C=C2\C(=O)Nc3ccccc32)c1 [15_37] | 4%
50 | Cc1ccc(CN/C=C2\C(=O)Nc3ccccc32)cc1 [15_38] | 3%
51 | CC(N/C=C1\C(=O)Nc2ccccc21)c1ccccc1 (stereo not drawn) [15_39] | 3%
52 | O=C1Nc2ccccc2/C1=C/Nc1ccccc1C(=O)O [15_40] | 1%
53 | CCc1cccc(C)c1N/C=C1\C(=O)Nc2ccccc21 [15_41] | 0%
54 | CC(=O)c1ccc(N/C=C2/C(=O)Nc3ccccc32)cc1 [15_42] | 0%
55 | O=C(CCC(=O)Nc1ccc(I)cc1)N/N=C/c1c2ccccc2cc2ccccc12 [compound 001] | 79%
56 | Nc1c(C(=O)Nc2cccc(Cl)c2Cl)sc2nc(-c3cccs3)ccc12 [compound 003] | 73%
57 | O=C1Nc2ccccc2/C1=C/Nc1ccc(Br)cc1F [compound 015] | 29%

target: baNadD (Bacillus anthracis, UniProt C3L5T6); test: biochemical; type: biochemical; details: not given
Sequence (C3L5T6 whole entry, looked up): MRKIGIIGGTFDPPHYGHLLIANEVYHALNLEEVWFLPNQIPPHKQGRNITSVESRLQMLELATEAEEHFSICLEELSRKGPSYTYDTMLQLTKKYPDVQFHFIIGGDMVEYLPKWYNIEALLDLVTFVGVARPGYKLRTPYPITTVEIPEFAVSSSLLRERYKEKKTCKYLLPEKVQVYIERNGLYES

Row | Structure (SMILES) | […]. anthracis
58 | S=C(N/N=C/c1ccccc1Cl)Nc1cc(Cl)ccc1Cl [compound 002] | 85%
59 | O=C(O)c1cc([N+](=O)[O-])ccc1Sc1cccs1 [compound 005] | 44%
60 | Brc1cnc2nc(/C=C/c3ccccc3)[nH]c2c1 [compound 006] | 34%
61 | O=C1NC(=O)/C(=C\c2ccc(C(=O)O)cc2)N1 [compound 007] | 34%
62 | CC(=O)Nc1ccc(S(=O)(=O)Nc2ccc(Cl)cc2Cl)cc1 [compound 008] | 0%
63 | COC(=O)c1sc(NC(=O)/C=C/C(=O)O)nc1C [compound 009] | 0%
64 | NS(=O)(=O)c1ccc(Nc2nc(-c3ccc(O)c(O)c3)cs2)cc1 [compound 010] | 89%
65 | O=C(Nc1ncccn1)c1sc2ccccc2c1Cl [compound 011] | 0%
66 | COc1cc(/C=N/c2ccc3[nH]c(=O)[nH]c3c2)ccc1OC(C)=O [compound 012] | 0%
67 | N=C(N)NNC(=S)Nc1ccc(Cl)cc1 [compound 013] | 0%
68 | Cc1cc(Nc2cccc(C(=O)O)c2)n2ncnc2n1 [compound 014] | 0%
69 | O=C(O)c1ccc([N+](=O)[O-])cc1C(=O)Nc1ccc(Cl)cc1 [compound 016] | 75%
70 | O=C(O)CCC(=O)NNC(=O)c1cccc(O)c1 [compound 017] | 0%
71 | Nc1nnc(CCSc2cc(Cl)ccc2Cl)s1 [compound 018] | 0%
72 | N#CC1=C(N)OC(c2cccs2)=C(C#N)C1c1cccs1 (stereo not drawn) [compound 019] | 27%
73 | O=C(Nc1ccc(NC(=O)c2cccs2)cc1)c1ccccc1 [compound 020] | 0%
74 | NS(=O)(=O)c1ccc(N/C=C/C(=O)c2ccc(Cl)s2)cc1 [compound 021] | 79%
75 | Nc1nc(-c2ccc(NC(=O)c3ccc(Cl)cc3)cc2)cs1 [compound 022] | 31%

Row | Structure (SMILES) | […]. anthracis
76 | Cc1c(NC(=O)CSS(=O)(=O)O)c(=O)n(-c2ccccc2)n1C [compound 023] | 34%
77 | O=C(O)CCCCCN1C(=O)c2ccc(F)cc2C1=O [compound 024] | 0%
78 | Cc1ccc(F)cc1NC(=O)CSCC(=O)O [compound 025] | 55%
79 | O=c1[nH]c(SCc2nc3ccccc3[nH]2)nc2ccccc12 [compound 026] | 0%
80 | O=C(O)c1cccc(NCN2C(=O)c3ccccc3C2=O)c1 [compound 027] | 0%
81 | O=C(NNC(=O)c1ccco1)c1cccc(I)c1 [compound 028] | 7%
82 | O=C(O)CCC(C(=O)O)N1C(=O)c2cc(Cl)c(Cl)cc2C1=O (stereo not drawn) [compound 029] | 0%
83 | O=C(O)c1ccc(Nc2nc(-c3ccc(Cl)cc3)cs2)cc1 [compound 030] | 28%
84 | O=C(O)c1nccnc1C(=O)Nc1ccc(Br)cc1 [compound 031] | 4%
85 | COc1c(C)cc(Br)cc1C(=O)Nc1ccc(S(N)(=O)=O)cc1 [compound 032] | 8%
86 | Nc1cc(NCCCCCC(=O)O)ccc1[N+](=O)[O-] [compound 034] | 1%
87 | CC(=O)Nc1ccc(NS(=O)(=O)c2ccc(O)c(C(=O)O)c2)cc1 [compound 035] | 0%
88 | O=C(Nc1ccccc1C(=O)O)c1ccc(Br)o1 [compound 036] | 0%
89 | COc1cc(Br)cc(/C=C2/SC(=S)NC2=O)c1O [compound 037] | 0%
90 | Oc1c(Cl)cc(Cl)cc1/C=N/c1nc[nH]n1 [compound 038] | 0%
91 | Nc1nonc1C(=O)N/N=C/c1cc(Br)cc(Br)c1O [compound 040] | 20%
92 | O=C(O)[C@@H]1CSC(c2ccc(Cl)cc2Cl)N1 (stereo partly drawn) [compound 041] | 39%

same assay, conditions: IC50 baNadD

Row | Structure (SMILES) | IC50
93 | Cc1cccc(N/C=C2\C(=O)Nc3ccccc32)c1 [15_28] | > 200 µM
94 | Cc1ccccc1N/C=C1\C(=O)Nc2ccccc21 [15_31] | 112 µM
95 | O=C(CCC(=O)Nc1ccc(I)cc1)N/N=C/c1c2ccccc2cc2ccccc12 [compound 001] | 21 µM
96 | O=C1Nc2ccccc2/C1=C/Nc1ccc(Br)cc1F [compound 015] | 16 µM

same assay, conditions: read-out: INHIBITION (%) B. anthracis

Row | Structure (SMILES) | inhibition at 50 µM
97 | Cc1cccc(N/C=C2\C(=O)Nc3ccccc32)c1 [15_28] | 24%
98 | Cc1ccc(N/C=C2\C(=O)Nc3ccccc32)cc1 [15_29] | 38%
99 | CC(C)c1ccc(N/C=C2\C(=O)Nc3ccccc32)cc1 [15_30] | 42%
100 | Cc1ccccc1N/C=C1\C(=O)Nc2ccccc21 [15_31] | 27%
101 | O=C1Nc2ccccc2/C1=C/NCCc1ccccc1 [15_32] | 4%
102 | O=C1Nc2ccccc2/C1=C/NC1CCCCC1 [15_33] | 15%
103 | CC(C)N/C=C1\C(=O)Nc2ccccc21 [15_34] | 9%
104 | CC(=O)c1cccc(N/C=C2\C(=O)Nc3ccccc32)c1 [15_35] | 19%
105 | Cc1cccc(C)c1N/C=C1\C(=O)Nc2ccccc21 [15_36] | 11%
106 | COc1cccc(N/C=C2\C(=O)Nc3ccccc32)c1 [15_37] | 1%
107 | Cc1ccc(CN/C=C2\C(=O)Nc3ccccc32)cc1 [15_38] | 17%
108 | CC(N/C=C1\C(=O)Nc2ccccc21)c1ccccc1 (stereo not drawn) [15_39] | 18%
109 | O=C1Nc2ccccc2/C1=C/Nc1ccccc1C(=O)O [15_40] | 0%
110 | CCc1cccc(C)c1N/C=C1\C(=O)Nc2ccccc21 [15_41] | 13%
111 | CC(=O)c1ccc(N/C=C2/C(=O)Nc3ccccc32)cc1 [15_42] | 11%
112 | O=C(CCC(=O)Nc1ccc(I)cc1)N/N=C/c1c2ccccc2cc2ccccc12 [compound 001] | 88%
113 | Nc1c(C(=O)Nc2cccc(Cl)c2Cl)sc2nc(-c3cccs3)ccc12 [compound 003] | 40%
114 | O=C1Nc2ccccc2/C1=C/Nc1ccc(Br)cc1F [compound 015] | 57%
